The record followed here is patent US20250204541A1, “GAS PHASE TREATMENT OF PRODUCE” (priority 2022, published 2025).

One assay has as its system avocados. The experiment in a line: Durometer shore (ripening/firmness) of treated avocados. In kind it is in vivo. Particulars: for average increase of durometer shore over the uninfected and untreated avocados: Example 22. The protocol:
Example 9. The antifungal activity of a range of AITC and carvacrol vapor exposure times was tested against Cg in avocados. To measure the effect of the various treatments on ripening, durometer shore was taken after 7 days of incubation at ambient temperature and high humidity. All samples were wounded by removing the stem and infected by dispensing 1000 Cg spores suspended in 10 μL of water in the wound. The test groups consisted of avocados that were: infected and left untreated on the benchtop; infected and left untreated under a fume hood; exposed to the vapor of 3 mL of AITC in a Petri dish for 24 hours, 48 hours, and 72 hours; and exposed to the vapor of 3 mL of carvacrol in a Petri dish for 72 hours. FIG. 11 quantifies the infection results. […] All exposure times to AITC vapor reduced the incidence of Cg mold compared to the untreated samples. A 24 hour AITC exposure reduced the incidence of Cg mold by 90%. A 48 hour AITC exposure reduced the incidence of Cg mold by 97%. A 72 hour AITC exposure reduced the incidence of Cg mold by 83%.
Example 10. The antifungal activity of a range of AITC vapor exposure times were tested against Cg in avocados. To measure the effect of the various treatments on ripening, durometer shore was taken after 6 days of incubation at ambient temperature and high humidity. All samples were wounded by removing the stem and infected by dispensing 1000 Cg spores suspended in 10 μL of water in each wound. The test groups consisted of avocados that were: infected and left untreated on the benchtop; infected and left untreated in a fume hood; exposed to the vapor of 3 mL of AITC in a Petri dish for 24 hours, 48 hours, and 72 hours. FIG. 13 quantifies the infection results. […] All exposure times to AITC vapor reduced the incidence of Cg mold compared to the untreated samples.
Example 21. The antifungal activity of avocados exposed to AITC vapor and prochloraz was tested against Cg in avocados. To measure the effect of the various treatments on ripening, durometer shore was taken after 5 days of incubation at ambient temperature (about 20° C. to about 25° C.) and high humidity (about 88% relative humidity to about 93% relative humidity). All samples were wounded by removing the stem and infected by dispensing 1000 Cg spores suspended in 10 μL of water in the wound. Exposure to vapor was done by placing the avocados in an airtight container, dispensing AITC onto Whatman filter paper discs, suspending the discs in front of a battery-powered fan, closing the container and incubating the avocados for 30 minutes. After vapor exposure, the avocados were left at ambient temperature, high humidity, and assessed for Cg mold on day 5. Treatment groups consisted of avocados that were: exposed for 30 minutes to the vapor of 125 μL of AITC disposed on a filter paper disc; dipped in a solution of 0.1 g/L of prochloraz and placed to dry on a rack in front of a fan for 30 min; infected and left untreated; and uninfected and untreated. […] To prepare the 0.1 g/L of prochloraz, 10 mg of prochloraz was mixed with 10 mL of ethanol and 90 mL of water. […] A 24 hour AITC exposure reduced the incidence of Cg mold by 90%. […] The mean shore value for the untreated avocados was 28.8 (standard deviation (SD)=10.8). The mean shore value for the infected avocados was 47.3 (SD=11.8). The mean shore value of the positive control, prochloraz treated avocados was 44.3 (SD=14.7). The mean shore value of the AITC treated avocados was 61.1 (SD=10.5).
Durometer Shore Measurement: A Fruit Hardness Tester—HPE III Fff w/Sphere Ø 5.0 mm Test Anvil is used for the measurements. The Operating Procedure is as follows: • 1) At room temperature and 1 atm pressure, switch on the measuring device and press the hull or sleeve against the specimen so that the contact surface of the pressure plate rests on the fruit. […]

Assay [1] has as its system Penicillium digitatum (Pd). The experiment in a line: Antifungal activity of vapor against Penicillium digitatum in wounded, infected mandarins. In kind it is in vivo. Particulars: for effect on Pd infection: airtight container with fan, 18 hours, then 6 days; for infected: 125 μL, 30 minutes.

On to `C=CCN=C=S` [AITC, allyl isothiocyanate], for which the “average increase of durometer shore over the untreated avocados” value was 20.3 shore in the assay on avocados (Example 9, Cg-infected avocados, all AITC treatments (3 mL, 24, 48, 72 hours), after 7 days, P value<0.0001) and 22.5 shore in the assay with avocados (Example 23, avocados, after 11 days, coating agent 40 g/L dip, AITC vapor of 500 μL, P value<0.0001). Moreover, the “average increase of durometer shore over the infected avocados” value with avocados (Example 10, Cg-infected avocados, all AITC treatments (3 mL, 24, 48, 72 hours), after 6 days, P value<0.005) came out at 15.4 shore. The “higher durometer shore than the untreated avocados” value in the assay with avocados (Example 21, Cg-infected avocados, 125 μL, 30 minutes, after 5 days) was “more than 30 shore”. For the same molecule, in the assay on avocados (Example 21, Cg-infected avocados, after 5 days, AITC 125 μL vapor 30 minutes, prochloraz 0.1 g/L dip), the mean shore value is 61.1 (SD=10.5) shore. The “average increase of durometer shore over the uninfected and untreated avocados” value with avocados (Cg-infected avocados, 250 μL, 30 minutes, after 5 days, P value=0.0016) is given as “about 10 shore”; in the assay on avocados (Cg-infected avocados, 500 μL, 30 minutes, after 5 days, P value<0.0001) it was “about 28.5 shore”. The “effect on Pd infection at 50% of the minimum inhibitory concentration” value in assay [1] (62.5 μL AITC vapor for 30 minutes, assessed after 6 days) is “tends to reduce the severity of infection, but not eliminate the incidence of infection”. Besides, the “effect on Pd infection” value in assay [1] (62.5 μL on filter paper disc) was “reduced the severity of infection relative to the untreated group”; in assay [1] (500 μL on filter paper disc) it was “substantially prevented the growth mold”. For the same molecule, the “effect on Pd mold” value in assay [1] (125 μL on filter paper, airtight container, 2 hour exposure, assessed after 6 days) is “substantially eliminated the mold”. The infected came out at 8.3% in assay [1] (treated 24 hours after infection, assessed after 6 days); 25% in assay [1] (treated 48 hours after infection, assessed after 6 days); 16.7% in assay [1] (treated 72 hours after infection, assessed after 6 days); 81.6% in assay [1] (treated 96 hours after infection, assessed after 6 days); 58.3% in assay [1] (treated immediately after infection (0 hours), assessed after 6 days).
